pEC50: −log10 of the molar value.
Legend:
Type in all cases: cell-based
[1] = target: T1, heteromeric KV7.2/KV7.3 channels (KCNQ2, KCNQ3) (Homo sapiens, UniProt O43525+O43526); experiment: Automated patch-clamp (Sophion Qube 384) potency assay against KV7.2/KV7.3 channels; conditions: CHO-K1/Kv7.2/Kv7.3 cells; for pEC50: EC50 from concentration-response of shift in Vhalf, 10 concentrations up to 30 μM, read-out: Kv7.2/7.3 EC50; for Kv7.2/7.3 ΔV1/2: maximal shift in the Vhalf from the top of the curve
T1 construct: expressed in transfected cells; host or cells: CHO-K1
In short: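 Whole-cell automated patch clamp on CHO-K1 cells stably expressing human KV7.2/KV7.3, held at −80 mV; I-V steps −100 to +20 mV (1 s) with 0 mV tail pulses, Boltzmann-fitted activation curves. Ten concentrations (1:3 from 30 μM, quadruplicate) versus 0.3% DMSO control; EC50 and maximal shift from 4-parameter fits of Vhalf shift.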

[2] = target: T2, homomeric KV7.4 channel (KCNQ4) (Homo sapiens, UniProt P56696); experiment: Automated patch-clamp (Qube) counter-screening assay against KV7.4 channel; conditions: CHO-K1 cells expressing KV7.4; class by maximal shift in the Vhalf at 30 μM
T2 construct: host or cells: CHO-K1
Text: Assessment of In Vitro Potency Against KV7.4 Channels
A counter-screening assay was also developed on the Qube against the homomeric KV7.4 channel (KCNQ4, Uniprot ID P56696). The cell line used was a stably transfected CHO-K1 with constitutive KV7.4 expression supplied by Charles River Laboratories.
CHO-K1 cells stably expressing KV7.4 channels were maintained in the following culture media: • Hams F-12 with GlutaMAX™ (Life Technologies 31765027), • 10% Fetal clone 2 serum (Perbio Science SH30066.03), and • 250 μg/ml Geneticin™ selective antibiotic (G418, Invitrogen 1013-027).
(§1) Cell maintenance, preparation, recording conditions and voltage protocols were all identical to those above.
(§2) Analysis of Data for Assessment of Potency
(§3) 10 concentrations of test compounds were applied to individual wells in quadruplicate to assess potency as a 1 in 3 dilution series from the maximal concentration of 30 μM. The average shift in the voltage for half activation (Vhalf) for each concentration was used to generate concentration-response curves fitted with a 4-parameter logistic model to estimate the EC50 from the point of inflection of the curve and the maximal shift in the Vhalf from the top of the curve.
(§4) The lower the EC50 value, the higher the potency of the analyzed compound. The selectivity criteria is assigned on the basis of the maximal shift in the Vhalf at 30 μM. […] In Table 3, ND means that selectivity was not determined.

[3] = target: T3, heteromeric KV7.3/KV7.5 channel (KCNQ3, KCNQ5) (Homo sapiens, UniProt O43525+Q9NR82); experiment: Automated patch-clamp counter-screening against KV7.3/KV7.5 channel; conditions: HEK293 cells expressing Kv7.3/KV7.5; class by maximal shift in the Vhalf at 30 μM
T3 construct: host or cells: HEK293
Experimental: Assessment of in vitro potency against KV7.3/KV7.5 channels
Counter-screening was also carried out against the heteromeric KV7.3/KV7.5 channel (KCNQ3, Uniprot ID 043525; KCNQ5, Uniprot ID Q9NR82). The cell line used was a stably transfected HEK293 cell line with constitutive Kv7.3 expression and tetracycline inducible KV7.5 expression supplied by Charles River Laboratories.
Cells were maintained in the following culture media: • DMEM/F-12 with GlutaMAX™ (Life Technologies 31331-028), • 10% Tet Systems FCS (Clonetech 631106), • 500 μg/ml Geneticin™ selective antibiotic (G418, Invitrogen 1013-027), • 5 μg/ml Blasticidin S HCl (InvivoGen ant-bl-5), and • 100 μg/ml Zeocin (InvivoGen: ant-zn-5).
as §1, §2, §3, §4

pEC50 [1]	Kv7.2/7.3 ΔV1/2 [1]	Structure (SMILES)	Kv7.4 selectivity criteria [2]	Kv7.3/7.5 selectivity criteria [3]
4.96	17.14 mV	O=C(NCCC1(C(F)(F)F)CC1)NCc1ccnc(OCC2(F)COC2)c1 [Compound 24, 1-((2-((3-Fluorooxetan-3-yl)methoxy)pyridin-4-yl)methyl)-3-(2-(1-(trifluoromethyl)cyclopropyl)ethyl)urea]	A (Selective compounds showed Kv7.4 and/or Kv7.3/7.5 ΔV1/2 equal to or lower than 15 mV (letter A in table 3))	A (Selective compounds showed Kv7.4 and/or Kv7.3/7.5 ΔV1/2 equal to or lower than 15 mV (letter A in table 3))
6.40	25.77 mV	O=C(NCCC1(C(F)(F)F)CC1)NCc1ccnc(OCc2ccc(F)cc2F)c1 [Compound 25, 1-((2-((2,4-Difluorobenzyl)oxy)pyridin-4-yl)methyl)-3-(2-(1-(trifluoromethyl)cyclopropyl)ethyl)urea]	A (Selective compounds showed Kv7.4 and/or Kv7.3/7.5 ΔV1/2 equal to or lower than 15 mV (letter A in table 3))	A (Selective compounds showed Kv7.4 and/or Kv7.3/7.5 ΔV1/2 equal to or lower than 15 mV (letter A in table 3))
5.29	31.67 mV	O=C(NCCC1(C(F)(F)F)CC1)NCc1cc(OCC(F)(F)F)nc(N2CCOCC2)c1 [Compound 26, 1-((2-Morpholino-6-(2,2,2-trifluoroethoxy)pyridin-4-yl)methyl)-3-(2-(1-(trifluoromethyl)cyclopropyl)ethyl)urea]	B (Non-selective compounds showed Kv7.4 and/or Kv7.3/7.5 ΔV1/2 higher than 15 mV (letter B in table 3))	A (Selective compounds showed Kv7.4 and/or Kv7.3/7.5 ΔV1/2 equal to or lower than 15 mV (letter A in table 3))
5.10	18.22 mV	O=C(NCCC1(C(F)(F)F)CC1)NCc1cc(OCc2ccc(F)cc2)nc(N2CCOCC2)c1 [Compound 27, 1-((2-((4-Fluorobenzyl)oxy)-6-morpholinopyridin-4-yl)methyl)-3-(2-(1-(trifluoromethyl)cyclopropyl)ethyl)urea]	B (Non-selective compounds showed Kv7.4 and/or Kv7.3/7.5 ΔV1/2 higher than 15 mV (letter B in table 3))	B (Non-selective compounds showed Kv7.4 and/or Kv7.3/7.5 ΔV1/2 higher than 15 mV (letter B in table 3))
5.51	25.36 mV	O=C(NCCC1(C(F)(F)F)CC1)NCc1cccc(OCC(F)(F)F)n1 [Compound 31, 1-((6-(2,2,2-Trifluoroethoxy)pyridin-2-yl)methyl)-3-(2-(1-(trifluoromethyl)cyclopropyl)ethyl)urea]	A (Selective compounds showed Kv7.4 and/or Kv7.3/7.5 ΔV1/2 equal to or lower than 15 mV (letter A in table 3))	B (Non-selective compounds showed Kv7.4 and/or Kv7.3/7.5 ΔV1/2 higher than 15 mV (letter B in table 3))
6.19	38.22 mV	O=C(NCc1ccnc(OCC(F)(F)F)c1)NCC1(C(F)(F)F)CC1 [Compound 35, 1-((2-(2,2,2-Trifluoroethoxy)pyridin-4-yl)methyl)-3-((1-(trifluoromethyl)cyclopropyl)methyl)urea]	B (Non-selective compounds showed Kv7.4 and/or Kv7.3/7.5 ΔV1/2 higher than 15 mV (letter B in table 3))	B (Non-selective compounds showed Kv7.4 and/or Kv7.3/7.5 ΔV1/2 higher than 15 mV (letter B in table 3))

Second part, the compound before the results:

Structure (SMILES)	pEC50 [1]	Kv7.2/7.3 ΔV1/2 [1]	Kv7.4 selectivity criteria [2]	Kv7.3/7.5 selectivity criteria [3]
O=C(NCCC1(C(F)(F)F)CC1)NCc1ccnc(NCC(F)(F)F)c1 [Compound 16, 1-((2-((2,2,2-Trifluoroethyl)amino)pyridin-4-yl)methyl)-3-(2-(1-(trifluoromethyl)cyclopropyl)ethyl)urea]	5.21	20.12 mV	A (Selective compounds showed Kv7.4 and/or Kv7.3/7.5 ΔV1/2 equal to or lower than 15 mV (letter A in table 3))	A (Selective compounds showed Kv7.4 and/or Kv7.3/7.5 ΔV1/2 equal to or lower than 15 mV (letter A in table 3))
O=C(NCCC1(C(F)(F)F)CC1)NCc1ccnc(OCCF)c1 [Compound 17, 1-((2-(2-Fluoroethoxy)pyridin-4-yl)methyl)-3-(2-(1-(trifluoromethyl)cyclopropyl)ethyl)urea]	5.26	28.27 mV	A (Selective compounds showed Kv7.4 and/or Kv7.3/7.5 ΔV1/2 equal to or lower than 15 mV (letter A in table 3))	A (Selective compounds showed Kv7.4 and/or Kv7.3/7.5 ΔV1/2 equal to or lower than 15 mV (letter A in table 3))
O=C(NCCC1(C(F)(F)F)CC1)NCc1ccnc(OCC(F)F)c1 [Compound 18, 1-((2-(2,2-Difluoroethoxy)pyridin-4-yl)methyl)-3-(2-(1-(trifluoromethyl)cyclopropyl)ethyl)urea]	6.19	24.69 mV	A (Selective compounds showed Kv7.4 and/or Kv7.3/7.5 ΔV1/2 equal to or lower than 15 mV (letter A in table 3))	A (Selective compounds showed Kv7.4 and/or Kv7.3/7.5 ΔV1/2 equal to or lower than 15 mV (letter A in table 3))
O=C(NCCC1(C(F)(F)F)CC1)NCc1ccnc(OCc2ccccc2F)c1 [Compound 19, 1-((2-((2-Fluorobenzyl)oxy)pyridin-4-yl)methyl)-3-(2-(1-(trifluoromethyl)cyclopropyl)ethyl)urea]	6.58	23.76 mV	A (Selective compounds showed Kv7.4 and/or Kv7.3/7.5 ΔV1/2 equal to or lower than 15 mV (letter A in table 3))	A (Selective compounds showed Kv7.4 and/or Kv7.3/7.5 ΔV1/2 equal to or lower than 15 mV (letter A in table 3))
CC(F)(F)COc1cc(CNC(=O)NCCC2(C(F)(F)F)CC2)ccn1 [Compound 20, 1-((2-(2,2-Difluoropropoxy)pyridin-4-yl)methyl)-3-(2-(1-(trifluoromethyl)cyclopropyl)ethyl)urea]	6.16	29.4 mV	A (Selective compounds showed Kv7.4 and/or Kv7.3/7.5 ΔV1/2 equal to or lower than 15 mV (letter A in table 3))	A (Selective compounds showed Kv7.4 and/or Kv7.3/7.5 ΔV1/2 equal to or lower than 15 mV (letter A in table 3))
O=C(NCCC1(C(F)(F)F)CC1)NC1CCCc2cnc(OCC(F)(F)F)cc21 (centres unmarked) [Compound 21, 1-(3-(2,2,2-Trifluoroethoxy)-5,6,7,8-tetrahydroisoquinolin-5-yl)-3-(2-(1-(trifluoromethyl)cyclopropyl)ethyl)urea]	5.74	14.76 mV	B (Non-selective compounds showed Kv7.4 and/or Kv7.3/7.5 ΔV1/2 higher than 15 mV (letter B in table 3))	B (Non-selective compounds showed Kv7.4 and/or Kv7.3/7.5 ΔV1/2 higher than 15 mV (letter B in table 3))
O=C(NCCC1(C(F)(F)F)CC1)NCc1ccnc(OCC2(F)CC2)c1 [Compound 22, 1-((2-((1-Fluorocyclopropyl)methoxy)pyridin-4-yl)methyl)-3-(2-(1-(trifluoromethyl)cyclopropyl)ethyl)urea]	5.71	27.07 mV	A (Selective compounds showed Kv7.4 and/or Kv7.3/7.5 ΔV1/2 equal to or lower than 15 mV (letter A in table 3))	A (Selective compounds showed Kv7.4 and/or Kv7.3/7.5 ΔV1/2 equal to or lower than 15 mV (letter A in table 3))
O=C(NCCC1(C(F)(F)F)CC1)NCc1ccnc(OCc2ccccn2)c1 [Compound 23, 1-((2-(Pyridin-2-ylmethoxy)pyridin-4-yl)methyl)-3-(2-(1-(trifluoromethyl)cyclopropyl)ethyl)urea]	5.32	18.69 mV	A (Selective compounds showed Kv7.4 and/or Kv7.3/7.5 ΔV1/2 equal to or lower than 15 mV (letter A in table 3))	A (Selective compounds showed Kv7.4 and/or Kv7.3/7.5 ΔV1/2 equal to or lower than 15 mV (letter A in table 3))

From patent US20260207563A1, “UREA COMPOUNDS AS ACTIVATORS OF POTASSIUM CHANNELS KV7.2/7.3 USEFUL IN THE TREATMENT OF CNS AND PNS DISORDERS” (ANGELINI PHARMA S.P.A., priority 2022, published 2026)
